Results on 26 compounds are retold here after patent US8124610B2, “Sodium channel inhibitors” (Icagen Inc., priority 2007, dated 2012).

The target of the test is T1, hSCN9A (Homo sapiens, UniProt Q15858).
T1 construct: expressed in transfected cells
Briefly: Whole-cell patch-clamp electrophysiology (conventional or PatchXpress), HEK cells expressing hSCN9A, estimated IC-50. The format is cell-based. As to conditions: estimated IC-50, HEK cells expressing hSCN9A; class symbols or bounds; read-out: SCN9A EIC-50. On the procedure: Human Embryonic Kidney (HEK) cells were transfected with hSCN3A or hSCN9A constructs using lipofectamine reagent (Invitrogen), using standard techniques. Cells stably expressing the hSCN3A or hSCN9A constructs were identified by their resistance to G-418 (400 μg/ml). Clones were screened for expression using the whole-cell voltage-clamp technique. HEK cells stably transfected with hSCN3A or hSCN9A were maintained in DMEM medium supplemented with 10% heat-inactivated fetal bovine serum and 400 μg/ml G418 sulfate in an incubator at 37° C. with a humidified atmosphere of 10% CO2. For HTS, cells were harvested from flasks by trypsinization and replated in an appropriate multi-well plate (typically 96 or 384 wells/plate) such that confluence would be achieved within 24 hours of plating. For electrophysiological studies, cells were removed from the culture flask by brief trypsinization and replated at low density onto glass cover slips. Cells were typically used for electrophysiological experiments within 24 to 72 h after plating. Cover slips containing HEK cells expressing hSCN3A or hSCN9A were placed in a bath on the stage of an inverted microscope and perfused (approximately 1 ml/min) with extracellular solution of the following composition: 138 mM NaCl, 2 mM CaCl2, 5.4 mM KCl, 1 mM MgCl2, 10 mM glucose, and 10 mM HEPES, pH 7.4, with NaOH. […] All recordings were made at room temperature (22-24° C.) using AXOPATCH 200B amplifiers and PCLAMP software (Axon Instruments, Burlingame, Calif.) or PatchXpress 7000 hardware and associated software (Axon Instruments, Burlingame, Calif.). hSCN3A or hSCN9A currents in HEK cells were measured using the whole-cell configuration of the patch-clamp technique (Hamill et al., 1981). […] As a result, voltage errors were negligible and no correction was applied. Current records were acquired at 20 to 50 KHz and filtered at 5 to 10 KHz. HEK cells stably transfected with hSCN3A or hSCN9A were viewed under Hoffman contrast optics and placed in front of an array of flow pipes emitting either control or compound-containing extracellular solutions. All compounds were dissolved in dimethyl sulfoxide to make 10 mM stock solutions, which were then diluted into extracellular solution to attain the final concentrations desired. […] The voltage-dependence of inactivation was determined by applying a series of depolarizing prepulses (8 sec long in 10 mV increments) from a negative holding potential. The voltage was then immediately stepped to 0 mV to assess the magnitude of the sodium current. Currents elicited at 0 mV were plotted as a function of prepulse potential to allow estimation of the voltage midpoint of inactivation (V1/2). Cells were then voltage clamped at the empirically determined V1/2. Compounds were tested for their ability to inhibit hSCN3A or hSCN9A sodium channels by activating the channel with a 20 msec voltage step to 0 mV following an 8 second conditioning prepulse to the empirically determined V1-2 (Table B). Compound effect (% inhibition) was determined by difference in current amplitude before and after application of test compounds. […] In some cases electrophysiological assays were conducted with PatchXpress 7000 hardware and associated software (Molecular Devices Corp) (Table B). All assay buffers and solutions were identical to those used in conventional whole-cell voltage clamp experiments described above. hSCN3A or hSCN9A containing cells were grown as above to 50%-80% confluency and harvested by trypsinization. Trypsinized cells were washed and resuspended in extracellular buffer at a concentration of 1×10^6 cells/ml. The onboard liquid handling facility of the PatchXpress was used for dispensing cells and application of test compounds. Determination of the voltage midpoint of inactivation was as described for conventional whole-cell recordings. Cells were then voltage-clamped to the empirically determined V1/2 and current was activated by a 20 msec voltage step to 0 mV.

T1 sequence (Q15858 whole entry): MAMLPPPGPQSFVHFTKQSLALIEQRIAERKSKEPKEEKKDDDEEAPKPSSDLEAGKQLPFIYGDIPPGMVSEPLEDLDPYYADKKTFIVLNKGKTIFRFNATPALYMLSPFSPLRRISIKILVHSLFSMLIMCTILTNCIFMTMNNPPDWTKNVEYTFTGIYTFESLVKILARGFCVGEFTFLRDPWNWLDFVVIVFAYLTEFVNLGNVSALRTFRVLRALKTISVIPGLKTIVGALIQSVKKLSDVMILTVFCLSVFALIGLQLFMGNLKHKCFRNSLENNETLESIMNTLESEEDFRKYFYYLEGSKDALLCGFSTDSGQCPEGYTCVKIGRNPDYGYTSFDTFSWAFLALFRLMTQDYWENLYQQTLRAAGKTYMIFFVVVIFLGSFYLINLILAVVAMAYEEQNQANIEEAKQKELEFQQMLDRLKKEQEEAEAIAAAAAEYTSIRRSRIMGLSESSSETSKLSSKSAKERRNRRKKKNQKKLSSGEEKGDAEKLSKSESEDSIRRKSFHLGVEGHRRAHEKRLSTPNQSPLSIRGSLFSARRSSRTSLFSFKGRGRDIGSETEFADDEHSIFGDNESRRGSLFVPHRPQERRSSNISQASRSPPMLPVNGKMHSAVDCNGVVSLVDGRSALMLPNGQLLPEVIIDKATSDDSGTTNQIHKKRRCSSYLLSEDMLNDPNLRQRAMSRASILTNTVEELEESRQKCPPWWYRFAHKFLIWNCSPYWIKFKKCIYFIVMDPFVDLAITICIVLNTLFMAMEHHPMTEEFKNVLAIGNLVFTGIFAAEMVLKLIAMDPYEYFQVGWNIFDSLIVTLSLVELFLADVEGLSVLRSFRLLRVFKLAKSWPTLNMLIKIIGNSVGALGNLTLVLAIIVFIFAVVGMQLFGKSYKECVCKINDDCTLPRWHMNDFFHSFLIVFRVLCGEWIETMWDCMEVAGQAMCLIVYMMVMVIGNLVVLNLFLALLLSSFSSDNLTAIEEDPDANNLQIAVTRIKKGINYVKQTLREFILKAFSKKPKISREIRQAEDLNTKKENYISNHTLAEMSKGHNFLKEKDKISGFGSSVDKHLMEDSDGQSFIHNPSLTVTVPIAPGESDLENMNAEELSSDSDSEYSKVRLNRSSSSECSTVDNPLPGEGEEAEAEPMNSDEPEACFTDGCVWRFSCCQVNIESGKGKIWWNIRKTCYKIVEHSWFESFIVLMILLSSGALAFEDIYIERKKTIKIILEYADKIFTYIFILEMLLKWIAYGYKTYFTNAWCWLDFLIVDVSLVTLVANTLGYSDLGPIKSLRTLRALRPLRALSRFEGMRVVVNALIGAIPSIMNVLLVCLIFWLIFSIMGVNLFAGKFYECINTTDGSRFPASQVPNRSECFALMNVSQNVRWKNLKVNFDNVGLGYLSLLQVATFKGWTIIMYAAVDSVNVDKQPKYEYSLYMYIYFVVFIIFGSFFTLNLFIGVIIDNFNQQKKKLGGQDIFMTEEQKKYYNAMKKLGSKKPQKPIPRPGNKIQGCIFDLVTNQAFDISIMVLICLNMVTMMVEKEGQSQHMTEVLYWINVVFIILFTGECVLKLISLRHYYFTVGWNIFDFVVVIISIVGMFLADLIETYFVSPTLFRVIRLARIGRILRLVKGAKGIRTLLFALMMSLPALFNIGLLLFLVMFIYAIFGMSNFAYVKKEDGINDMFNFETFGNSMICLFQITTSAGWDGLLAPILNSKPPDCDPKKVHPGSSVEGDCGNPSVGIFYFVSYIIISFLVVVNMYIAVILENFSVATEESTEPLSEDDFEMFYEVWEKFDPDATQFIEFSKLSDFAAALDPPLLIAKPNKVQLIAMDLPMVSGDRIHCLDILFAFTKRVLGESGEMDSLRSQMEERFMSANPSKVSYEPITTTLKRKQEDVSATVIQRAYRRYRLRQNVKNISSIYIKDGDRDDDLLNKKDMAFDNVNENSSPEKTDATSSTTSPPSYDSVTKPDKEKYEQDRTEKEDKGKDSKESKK

For `O=S(=O)(Nc1nccs1)c1ccc(Nc2cc(C3CC3)nn2-c2ccccc2)cc1` [Compound 144, 4-(3-cyclopropyl-1-phenyl-1H-pyrazol-5-ylamino)-N-(thiazol-2-yl)benzenesulfonamide], the IC50 was under 2000 nM.
On to `Cn1ncc(-c2ccccc2)c1Nc1ccc(S(=O)(=O)Nc2nccs2)c(F)c1` [Compound 148, 2-fluoro-4-(1-methyl-4-phenyl-1H-pyrazol-5-ylamino)-N-(thiazol-2-yl)benzenesulfonamide], for which the IC50 is 2000 to 10000 nM.
As for `Cc1ccc(Cc2cc(Nc3ccc(S(=O)(=O)Nc4nccs4)c(F)c3)n(C(C)(C)C)n2)cc1` [Compound 157, 4-(1-tert-butyl-3-(4-methylbenzyl)-1H-pyrazol-5-ylamino)-2-fluoro-N-(thiazol-2-yl)benzenesulfonamide], the IC50 was under 2000 nM.
In the case of `Cc1ccc(Cc2cc(Nc3ccc(S(=O)(=O)Nc4nccs4)cc3F)n(C(C)(C)C)n2)cc1` [Compound 158, 4-(1-tert-butyl-3-(4-methylbenzyl)-1H-pyrazol-5-ylamino)-3-fluoro-N-(thiazol-2-yl)benzenesulfonamide] it was under 2000 nM.
With `Cc1ccc(Cc2cc(Nc3ccc(S(=O)(=O)Nc4nccs4)c(F)c3)n(C)n2)cc1` [Compound 159, 2-fluoro-4-(1-methyl-3-(4-methylbenzyl)-1H-pyrazol-5-ylamino)-N-(thiazol-2-yl)benzenesulfonamide], the IC50 was under 2000 nM.
On to `Cc1ccc(Cc2cc(Nc3ccc(S(=O)(=O)Nc4nccs4)cc3F)n(C)n2)cc1` [Compound 160, 3-fluoro-4-(1-methyl-3-(4-methylbenzyl)-1H-pyrazol-5-ylamino)-N-(thiazol-2-yl)benzenesulfonamide], for which the IC50 was under 2000 nM.
The same measure for `Cc1cc(Nc2ccc(S(=O)(=O)Nc3ncc(Cl)s3)cc2)n(-c2ccccc2)n1` [Compound 163, N-(5-chlorothiazol-2-yl)-4-(3-methyl-1-phenyl-1H-pyrazol-5-ylamino)benzenesulfonamide]: 2000 to 10000 nM.
In the case of `CC(C)(C)n1nc(Cc2cccc(Cl)c2)cc1Nc1ccc(S(=O)(=O)Nc2nccs2)c(F)c1` [Compound 164, 4-(1-tert-butyl-3-(3-chlorobenzyl)-1H-pyrazol-5-ylamino)-2-fluoro-N-(thiazol-2-yl)benzenesulfonamide] it was under 2000 nM; in that of `Cc1ccc(Cc2cc(Nc3ccc(S(=O)(=O)Nc4nccs4)c(F)c3)[nH]n2)cc1` [Compound 165, 2-fluoro-4-(3-(4-methylbenzyl)-1H-pyrazol-5-ylamino)-N-(thiazol-2-yl)benzenesulfonamide], under 2000 nM.
Consider `CC(C)(C)n1nc(Cc2ccc(Cl)c(F)c2)cc1Nc1ccc(S(=O)(=O)Nc2nccs2)c(F)c1` [Compound 166, 4-(1-tert-butyl-3-(4-chloro-3-fluorobenzyl)-1H-pyrazol-5-ylamino)-2-fluoro-N-(thiazol-2-yl)benzenesulfonamide], for which the IC50 was under 2000 nM.
The same measure for `Cc1ccc(Cc2cc(Nc3ccc(S(=O)(=O)Nc4nccs4)cc3F)[nH]n2)cc1` [Compound 167, 3-fluoro-4-(3-(4-methylbenzyl)-1H-pyrazol-5-ylamino)-N-(thiazol-2-yl)benzenesulfonamide]: under 2000 nM; for `O=S(=O)(Nc1nccs1)c1ccc(Nc2ccnn2-c2ccccc2)cc1F` [Compound 168, 2-fluoro-4-(1-phenyl-1H-pyrazol-5-ylamino)-N-(thiazol-2-yl)benzenesulfonamide]: under 2000 nM; for `Cc1cc(Nc2ccc(S(=O)(=O)Nc3nccs3)c(F)c2)n(C2CCCC2)n1` [Compound 169, 4-(1-cyclopentyl-3-methyl-1H-pyrazol-5-ylamino)-2-fluoro-N-(thiazol-2-yl)benzenesulfonamide]: under 2000 nM.
In the case of `Cc1cc(Nc2ccc(S(=O)(=O)Nc3nccs3)c(F)c2)n(-c2ccc(C(F)(F)F)cc2)n1` [Compound 170, 2-fluoro-4-(3-methyl-1-(4-(trifluoromethyl)phenyl)-1H-pyrazol-5-ylamino)-N-(thiazol-2-yl)benzenesulfonamide] it was under 2000 nM; in that of `O=S(=O)(Nc1nccs1)c1ccc(Nc2cnn(C(c3ccccc3)c3ccccc3)c2)cc1F` [Compound 171, 4-(1-benzhydryl-1H-pyrazol-4-ylamino)-2-fluoro-N-(thiazol-2-yl)benzenesulfonamide], under 2000 nM; in that of `O=S(=O)(Nc1nccs1)c1ccc(Nc2c3c(nn2-c2ccccc2)CCC3)cc1F` [Compound 174, 2-fluoro-4-(2-phenyl-2,4,5,6-tetrahydrocyclopenta[c]pyrazol-3-ylamino)-N-(thiazol-2-yl)benzenesulfonamide], under 2000 nM.
As to `Cc1cc(Nc2ccc(S(=O)(=O)Nc3nccs3)c(F)c2)n(C(C)C2CC2)n1` (centres unmarked) [Compound 175, 4-(1-(1-cyclopropylethyl)-3-methyl-1H-pyrazol-5-ylamino)-2-fluoro-N-(thiazol-2-yl)benzenesulfonamide], the IC50 was under 2000 nM.
The same measure for `Cc1cccc(-n2nc(C)cc2Nc2ccc(S(=O)(=O)Nc3nccs3)c(F)c2)c1` [Compound 176, 2-fluoro-4-(3-methyl-1-m-tolyl-1H-pyrazol-5-ylamino)-N-(thiazol-2-yl)benzenesulfonamide]: under 2000 nM; for `Cc1cc(Nc2ccc(S(=O)(=O)Nc3nccs3)c(F)c2)n(-c2cccc(F)c2)n1` [Compound 177, 2-fluoro-4-(1-(3-fluorophenyl)-3-methyl-1H-pyrazol-5-ylamino)-N-(thiazol-2-yl)benzenesulfonamide]: under 2000 nM.
The same measure for `Cc1cc(Nc2ccc(S(=O)(=O)Nc3nccs3)c(F)c2)n(-c2ccc(F)cc2)n1` [Compound 178, 2-fluoro-4-(1-(4-fluorophenyl)-3-methyl-1H-pyrazol-5-ylamino)-N-(thiazol-2-yl)benzenesulfonamide]: under 2000 nM.
On to `Cc1cc(Nc2ccc(S(=O)(=O)Nc3nccs3)c(F)c2)n(-c2ccccc2C(F)(F)F)n1` [Compound 179, 2-fluoro-4-(3-methyl-1-(2-(trifluoromethyl)phenyl)-1H-pyrazol-5-ylamino)-N-(thiazol-2-yl)benzenesulfonamide], for which the IC50 is under 2000 nM.
In the case of `N#Cc1cn(-c2ccccc2)nc1Nc1ccc(S(=O)(=O)Nc2nccs2)c(F)c1` [Compound 180, 4-(4-cyano-1-phenyl-1H-pyrazol-3-ylamino)-2-fluoro-N-(thiazol-2-yl)benzenesulfonamide] it was 2000 to 10000 nM; in that of `Cc1cc(Nc2ccc(S(=O)(=O)Nc3nccs3)c(F)c2)n(-c2cccc(C(F)(F)F)c2)n1` [Compound 181, 2-fluoro-4-(3-methyl-1-(3-(trifluoromethyl)phenyl)-1H-pyrazol-5-ylamino)-N-(thiazol-2-yl)benzenesulfonamide], under 2000 nM; in that of `Cc1cc(Nc2ccc(S(=O)(=O)Nc3nccs3)c(F)c2)n(-c2cc(F)ccc2C)n1` [Compound 186, 2-fluoro-4-(1-(5-fluoro-2-methylphenyl)-3-methyl-1H-pyrazol-5-ylamino)-N-(thiazol-2-yl)benzenesulfonamide], under 2000 nM.
For `Cc1cc(Nc2ccc(S(=O)(=O)Nc3nccs3)c(F)c2)n(-c2ccc(F)cc2C(F)(F)F)n1` [Compound 187, 2-fluoro-4-(1-(4-fluoro-2-(trifluoromethyl)phenyl)-3-methyl-1H-pyrazol-5-ylamino)-N-(thiazol-2-yl)benzenesulfonamide], the IC50 is under 2000 nM.
For the compound `Cc1cc(Nc2ccc(S(=O)(=O)Nc3nccs3)c(F)c2)n(-c2c(Cl)cccc2Cl)n1` [Compound 189, 4-(1-(2,6-dichlorophenyl)-3-methyl-1H-pyrazol-5-ylamino)-2-fluoro-N-(thiazol-2-yl)benzenesulfonamide], the IC50 was under 2000 nM.
